Laboratory results as given in PubChem BioAssay AID248 (DTP/NCI, 2004).
“And” between values parts separate entries of the source, which are not always exact repeats. Equal entries are not always repeated. Inconclusive results and toxic doses are left out. Rule as the data show it: active = T/C of 150% or more; inactive = T/C below 125%.

System: L1210 leukemia ip in BDF1 mice, survival T/C
Experiment: NCI In Vivo Anticancer Drug Screen. Data for tumor model L1210 Leukemia (intraperitoneal) in B6D2F1 (BDF1) mice
Conditions: endpoint: mean survival time, higher = longer survival
How it was run: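 Tumor cells were implanted, animals were treated, and survival was followed. The result divides the treated measurement by the vehicle-control measurement.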

[1] = dose: 100.0 mg/kg/injection, schedule: Q04DX003 (ip), vehicle: Klucel (hydroxypropylcellulose) (HPC)
[2] = dose: 200.0 mg/kg/injection, schedule: Q04DX003 (ip), vehicle: Klucel (hydroxypropylcellulose) (HPC)
[3] = dose: 400.0 mg/kg/injection, schedule: Q04DX003 (ip), vehicle: Klucel (hydroxypropylcellulose) (HPC)
[4] = dose: 100.0 mg/kg/injection, schedule: Q04DX002 (ip), vehicle: saline
[5] = dose: 200.0 mg/kg/injection, schedule: Q04DX002 (ip), vehicle: saline
[6] = dose: 400.0 mg/kg/injection, schedule: Q04DX002 (ip), vehicle: saline
[7] = dose: 75.0 mg/kg/injection, schedule: Q01DX001 (ip), vehicle: saline
[8] = dose: 150.0 mg/kg/injection, schedule: Q01DX001 (ip), vehicle: saline
[9] = dose: 100.0 mg/kg/injection, schedule: Q01DX009 (ip), vehicle: saline with Tween-80
[10] = dose: 200.0 mg/kg/injection, schedule: Q01DX009 (ip), vehicle: saline with Tween-80
[11] = dose: 400.0 mg/kg/injection, schedule: Q01DX009 (ip), vehicle: saline with Tween-80

Measured: T/C

O=C(NCCCl)Nc1ccncc1
inactive: dose: 1.25 mg/kg/injection, schedule: Q01DX009 (ip), vehicle: Klucel (hydroxypropylcellulose) (HPC) 97 % of control | dose: 2.5 mg/kg/injection, schedule: Q01DX009 (ip), vehicle: Klucel (hydroxypropylcellulose) (HPC) 88 % of control | dose: 2.5 mg/kg/injection, schedule: Q04DX003 (ip), vehicle: Klucel (hydroxypropylcellulose) (HPC) 100 % of control | dose: 5.0 mg/kg/injection, schedule: Q04DX003 (ip), vehicle: Klucel (hydroxypropylcellulose) (HPC) 103 % of control

O=C(c1ccccc1)c1ccc(Oc2ccc(C(=O)c3ccccc3)cc2)cc1
inactive: dose: 75.0 mg/kg/injection, schedule: Q04DX003 (ip), vehicle: Klucel (hydroxypropylcellulose) (HPC) 94 % of control | [1] 101 % of control | dose: 150.0 mg/kg/injection, schedule: Q04DX003 (ip), vehicle: Klucel (hydroxypropylcellulose) (HPC) 96 % of control | [2] 96 % of control | dose: 300.0 mg/kg/injection, schedule: Q04DX003 (ip), vehicle: Klucel (hydroxypropylcellulose) (HPC) 107 % of control | [3] 95 % of control

Cc1ccc(Cl)c(I)c1
inactive: [4] 103 % of control | [5] 103 % of control | [6] 95 % of control

CCC(COC(=O)c1ccccc1)(COC(=O)c1ccccc1)[N+](=O)[O-]
inactive: dose: 100.0 mg/kg/injection, schedule: Q01DX001 (ip), vehicle: Klucel (hydroxypropylcellulose) (HPC) 105 % of control | dose: 200.0 mg/kg/injection, schedule: Q01DX001 (ip), vehicle: Klucel (hydroxypropylcellulose) (HPC) 95 % of control | dose: 400.0 mg/kg/injection, schedule: Q01DX001 (ip), vehicle: Klucel (hydroxypropylcellulose) (HPC) 108 % of control

CSC1=NCCCC1
inactive: [7] 105 % of control | [8] 104 % of control

CCOc1ncc([N+](=O)[O-])c(OCC)n1
inactive: dose: 50.0 mg/kg/injection, schedule: Q01DX001 (ip), vehicle: saline 103 % of control | dose: 100.0 mg/kg/injection, schedule: Q01DX001 (ip), vehicle: saline 106 % of control | dose: 200.0 mg/kg/injection, schedule: Q01DX001 (ip), vehicle: saline 103 % of control | dose: 400.0 mg/kg/injection, schedule: Q01DX001 (ip), vehicle: saline 100 % of control

O=C1NC2(C=CC(Br)CC2)C(=O)C12CCCCC2 (stereo unspecified) (tested in a mixture with another compound)
inactive: [8] 94 % of control

COc1cc2c3c(c1)-c1c(ccc(OC)c1O)CC3N(C)CC2 (stereo unspecified)
inactive: dose: 25.0 mg/kg/injection, schedule: Q04DX003 (ip), vehicle: DMSO 93 % of control | dose: 50.0 mg/kg/injection, schedule: Q04DX003 (ip), vehicle: DMSO 91 % of control | dose: 100.0 mg/kg/injection, schedule: Q04DX003 (ip), vehicle: DMSO 91 % of control

Nc1cccc2c1C(=O)c1c(c(O)c3ccccc3c1O)C2=O
inactive: [1] 100 % of control | [2] 96 % of control | [3] 96 % of control

Cc1ccc(C(=O)C=Nc2ccc(O)cc2)cc1
inactive: dose: 12.5 mg/kg/injection, schedule: Q04DX002 (ip), vehicle: Klucel (hydroxypropylcellulose) (HPC) 94 % of control | dose: 25.0 mg/kg/injection, schedule: Q04DX002 (ip), vehicle: Klucel (hydroxypropylcellulose) (HPC) 97 % of control | dose: 50.0 mg/kg/injection, schedule: Q04DX002 (ip), vehicle: Klucel (hydroxypropylcellulose) (HPC) 102 % of control

CN(C)C(=O)c1cc[n+](Cc2ccc(Cl)c(Cl)c2)cc1
inactive: dose: 100.0 mg/kg/injection, schedule: Q04DX003 (ip), vehicle: saline 105 % of control

CC(=O)Nc1c(Cl)cccc1Cl
inactive: [1] 95 % of control | [2] 108 % of control | [3] 110 % of control

Cc1cccnc1NC1=NCCO1
inactive: [9] 100 % of control | [10] 96 % of control | [11] 93 % of control

CN=C(N)C(C)Cl (stereo unspecified)
inactive: [4] 106 % of control | [5] 103 % of control | [6] 103 % of control

C[n+]1c(-c2ccc(Cl)cc2Cl)c2cc(N)ccc2c2ccccc21
inactive: dose: 3.12 mg/kg/injection, schedule: Q01DX009 (ip), vehicle: water 100 % of control | dose: 6.25 mg/kg/injection, schedule: Q01DX009 (ip), vehicle: water 91 % of control | dose: 12.5 mg/kg/injection, schedule: Q01DX009 (ip), vehicle: water 102 % of control and 105 % of control | dose: 12.5 mg/kg/injection, schedule: Q04DX003 (ip), vehicle: water 100 % of control | dose: 25.0 mg/kg/injection, schedule: Q01DX009 (ip), vehicle: water 120 % of control and 86 % of control | dose: 25.0 mg/kg/injection, schedule: Q04DX003 (ip), vehicle: water 90 % of control

CC1C2CCC1(C)C(C=O)C2 (stereo unspecified)
inactive: [7] 93 % of control | [8] 88 % of control | dose: 300.0 mg/kg/injection, schedule: Q01DX001 (ip), vehicle: saline 88 % of control

O=C(CCl)NC1C2CC3CC(C2)CC1C3 (stereo unspecified)
inactive: dose: 100.0 mg/kg/injection, schedule: Q04DX002 (ip), vehicle: Klucel (hydroxypropylcellulose) (HPC) 104 % of control | dose: 200.0 mg/kg/injection, schedule: Q04DX002 (ip), vehicle: Klucel (hydroxypropylcellulose) (HPC) 101 % of control | dose: 400.0 mg/kg/injection, schedule: Q04DX002 (ip), vehicle: Klucel (hydroxypropylcellulose) (HPC) 96 % of control

O=C(O)c1cc(-c2ccccc2)nc2c([N+](=O)[O-])cccc12
inactive: dose: 75.0 mg/kg/injection, schedule: Q01DX001 (ip), vehicle: acetone 95 % of control | dose: 150.0 mg/kg/injection, schedule: Q01DX001 (ip), vehicle: acetone 92 % of control | dose: 300.0 mg/kg/injection, schedule: Q01DX001 (ip), vehicle: acetone 108 % of control

CC(=O)Nc1ncccn1
inactive: dose: 100.0 mg/kg/injection, schedule: Q04DX002 (ip), vehicle: saline with Tween-80 98 % of control | dose: 200.0 mg/kg/injection, schedule: Q04DX002 (ip), vehicle: saline with Tween-80 98 % of control | dose: 400.0 mg/kg/injection, schedule: Q04DX002 (ip), vehicle: saline with Tween-80 98 % of control

Cc1cccc(C2C(=O)c3ccccc3C2=O)n1
inactive: [9] 88 % of control | dose: 100.0 mg/kg/injection, schedule: Q04DX003 (ip), vehicle: saline with Tween-80 95 % of control | [10] 89 % of control | dose: 200.0 mg/kg/injection, schedule: Q04DX003 (ip), vehicle: saline with Tween-80 99 % of control | [11] 91 % of control | dose: 400.0 mg/kg/injection, schedule: Q04DX003 (ip), vehicle: saline with Tween-80 88 % of control
